# Reference: patent publication US20140023611A1 (priority 2010, published 2014)
# pIC50: −log10 of the molar value.
# Experiments:
# [1] = Stability of compounds in simulated intestinal fluid (SIF); assay type: in vitro ADME; conditions: simulated intestinal fluid (3 mg/mL pancreatin), incubation time 6 hr, relative to t=0
# Experimental: (§1) Test compounds were incubated at […] in simulated gastric fluid (SGF; standard USP solution with 3 mg/mL pepsin) or simulated intestinal fluid (SIF; standard USP solution with 3 mg/mL pancreatin) for 3 hr or 6 hr. HPLC-UV or HPLC-MS were used to determine test compound levels using peak area %. Results (Table 14) were reported as the percentage of test compound remaining after incubation in a given condition relative to test compound present at t=0 in the same condition.
# [2] = Stability of compounds in simulated gastric fluid (SGF); assay type: in vitro ADME; conditions: simulated gastric fluid (3 mg/mL pepsin), incubation time 6 hr, relative to t=0
# Experimental: as §1
# [3] = Determination of compound Cmax and AUC after oral gavage (plasma LC-MS/MS); assay type: in vivo, Sprague-Dawley rats; conditions: Sprague-Dawley, rat, plasma, po, Structure (I) examples, Table 15, actual oral dose 3-15 mg/kg, plasma 0.5-4 h
# In short: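 Sprague-Dawley rats dosed by oral gavage at nominal 2.5 or 10 mg/kg; blood drawn at 0.5, 1, 2 and 4 h into K2EDTA. Plasma protein-precipitated with acetonitrile plus internal standard and analysed by LC-MS/MS against a plasma standard curve to derive Cmax and AUC.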
# rat NaP2b (SLC34A2) = target: T1, rat NaP2b (SLC34A2) (Rattus norvegicus, UniProt Q9JJ09); experiment: Inhibition of NaP2b-mediated Pi (33P) uptake in transfected HEK293 cells, rat NaP2b; assay type: cell-based; conditions: 33P Pi uptake, 0.1 mM phosphate, value given as pIC50 range
# T1 construct: host or cells: HEK293
# T1 sequence (Q9JJ09 1-695): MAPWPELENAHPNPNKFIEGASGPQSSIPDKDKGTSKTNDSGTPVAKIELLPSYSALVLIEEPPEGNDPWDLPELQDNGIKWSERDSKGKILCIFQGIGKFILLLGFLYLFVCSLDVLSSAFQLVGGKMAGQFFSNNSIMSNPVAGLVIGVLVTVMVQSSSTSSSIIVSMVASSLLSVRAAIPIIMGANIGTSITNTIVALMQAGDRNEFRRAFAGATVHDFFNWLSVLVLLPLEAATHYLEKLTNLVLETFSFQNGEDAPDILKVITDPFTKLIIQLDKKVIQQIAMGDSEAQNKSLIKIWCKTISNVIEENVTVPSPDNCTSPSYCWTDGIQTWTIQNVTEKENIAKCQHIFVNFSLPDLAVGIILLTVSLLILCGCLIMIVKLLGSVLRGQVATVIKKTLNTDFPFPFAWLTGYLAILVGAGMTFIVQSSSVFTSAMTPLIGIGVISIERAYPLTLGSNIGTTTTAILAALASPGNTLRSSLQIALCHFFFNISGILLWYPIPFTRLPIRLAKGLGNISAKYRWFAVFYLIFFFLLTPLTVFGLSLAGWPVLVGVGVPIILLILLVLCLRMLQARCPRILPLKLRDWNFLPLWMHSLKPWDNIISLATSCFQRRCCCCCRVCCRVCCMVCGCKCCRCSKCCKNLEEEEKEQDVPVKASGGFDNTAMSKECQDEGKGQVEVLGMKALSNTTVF
# In short: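 HEK293 cells were transiently transfected with NaP2b cDNA using Lipofectamine and grown near confluence. Compounds were tested at twelve concentrations from 0.1 nM to 30 uM in duplicate, and 33P-phosphate uptake was counted by scintillation after lysis. Results are expressed as pIC50.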
SMILES,"% remaining, SIF [1]","% remaining, SGF [2] [%]",AUC [3] [ng·h/mL],Cmax [3] [ng/mL],pIC50 (rat NaP2b (SLC34A2))
"COCCOCCOCCOCCOCCOCCOCCOCCNC(=O)CCOCCOCCOCCOCCSCc1cccc(C(=O)Nc2ccc(N3CCCCC3)cc2-c2cc(C(=O)NCc3cccc(C(F)(F)F)c3)ccn2)c1 [Example 148, 2-(2-(3-(27-oxo-2,5,8,11,14,17,20,23,30,33,36,39-dodecaoxa-42-thia-26-azatritetracontan-43-yl)benzamido)-5-(piperidin-1-yl)phenyl)-N-(3-(trifluoromethyl)benzyl)isonicotinamide]",>80%,>80,< 10,< 10,5.10 to 6.00
"O=C(CCOCCOCCOCCOCCSCc1cccc(C(=O)Nc2ccc(N3CCCCC3)cc2-c2cc(C(=O)NCc3cccc(C(F)(F)F)c3)ccn2)c1)NCCOCCOCCOCCOCCOCCOCCOCCO [Example 149, 2-(2-(3-(41-hydroxy-17-oxo-5,8,11,14,21,24,27,30,33,36,39-undecaoxa-2-thia-18-azahentetracontyl)benzamido)-5-(piperidin-1-yl)phenyl)-N-(3-(trifluoromethyl)benzyl)isonicotinamide]",>80%,>80,< 10,< 10,5.10 to 6.00
"CN(CCN1CCOCC1)C(=O)CCOCCOCCOCCOCCSCc1cccc(C(=O)Nc2ccc(N3CCCCC3)cc2-c2cc(C(=O)NCc3cccc(C(F)(F)F)c3)ccn2)c1 [Example 150, 2-(2-(3-(18-methyl-20-morpholino-17-oxo-5,8,11,14-tetraoxa-2-thia-18-azaicosyl)benzamido)-5-(piperidin-1-yl)phenyl)-N-(3-(trifluoromethyl)benzyl)isonicotinamide]",>80%,>80,< 10,< 10,4.50 to 5.00
"O=C(NCc1cccc(C(F)(F)F)c1)c1ccnc(-c2cc(N3CCCCC3)ccc2NC(=O)c2cccc(CSCCOCCOCCOCCOCCC(=O)N(CCO)CCO)c2)c1 [Example 151, 2-(2-(3-(20-hydroxy-18-(2-hydroxyethyl)-17-oxo-5,8,11,14-tetraoxa-2-thia-18-azaicosyl)benzamido)-5-(piperidin-1-yl)phenyl)-N-(3-(trifluoromethyl)benzyl)isonicotinamide]",40-60%,>80,< 10,< 10,5.10 to 6.00
"CCN(CC)CCN(C)C(=O)CCOCCOCCOCCOCCSCc1cccc(C(=O)Nc2ccc(N3CCCCC3)cc2-c2cc(C(=O)NCc3cccc(C(F)(F)F)c3)ccn2)c1 [Example 152, 2-(2-(3-(21-ethyl-18-methyl-17-oxo-5,8,11,14-tetraoxa-2-thia-18,21-diazatricosyl)benzamido)-5-(piperidin-1-yl)phenyl)-N-(3-(trifluoromethyl)benzyl)isonicotinamide]",>80%,>80,< 10,< 10,5.10 to 6.00
"CCN(CC)c1ccc(NC(=O)c2cccc(CSCCOCCOCCOCCOCCC(=O)O)c2)c(-c2cc(C(=O)N[C@H]3CCCc4ccccc43)ccn2)c1 [Example 157, (S)-1-(3-(4-(diethylamino)-2-(4-(1,2,3,4-tetrahydronaphthalen-1-ylcarbamoyl)pyridin-2-yl)phenylcarbamoyl)phenyl)-5,8,11,14-tetraoxa-2-thiaheptadecan-17-oic acid]",>80%,>80,< 10,< 10,> 6.00
"CCN(CC)c1ccc(NC(=O)c2cccc(CSCCOCCOCCOCCOCCC(=O)NCCOCCOCCOCCOCCOCCOCCOCCOC)c2)c(-c2cc(C(=O)N[C@H]3CCCc4ccccc43)ccn2)c1 [Example 157.1, (S)-2-(5-(diethylamino)-2-(3-(27-oxo-2,5,8,11,14,17,20,23,30,33,36,39-dodecaoxa-42-thia-26-azatritetracontan-43-yl)benzamido)phenyl)-N-(1,2,3,4-tetrahydronaphthalen-1-yl)isonicotinamide]",>80%,>80,< 30,< 10,5.10 to 6.00
"CCN(CC)c1ccc(NC(=O)c2cccc(CSCCOCCOCCOCCOCCC(=O)NCCOCCOCCOCCOCCOCCOCCOCCOC)c2)c(-c2cc(C(=O)NCc3cccc(C(F)(F)F)c3)ccn2)c1 [Example 165, 2-(5-(diethylamino)-2-(3-(27-oxo-2,5,8,11,14,17,20,23,30,33,36,39-dodecaoxa-42-thia-26-azatritetracontan-43-yl)benzamido)phenyl)-N-(3-(trifluoromethyl)benzyl)isonicotinamide]",>80%,>80,< 30,< 10,5.10 to 6.00
"CN(CCN1CCC[C@H]1C(=O)N(C)CCOCCOCCOCCC(=O)O)C(=O)c1cccc(C(=O)Nc2ccc(N3CCCCC3)cc2-c2cc(C(=O)N[C@H]3CCCc4ccccc43)ccn2)c1 [Example 191, 2-Methyl-1-((S)-1-(2-(N-methyl-3-((4-(piperidin-1-yl)-2-(4-(((S)-1,2,3,4-tetrahydronaphthalen-1-yl)carbamoyl)pyridin-2-yl)phenyl)carbamoyl)benzamido)ethyl)pyrrolidin-2-yl)-1-oxo-5,8,11-trioxa-2-azatetradecan-14-oic acid]",>80%,>80,< 10,< 10,4.50 to 5.00
"CN(CCN1CCC[C@H]1C(=O)NCCOCCOCCOCCC(=O)O)C(=O)c1cccc(C(=O)Nc2ccc(N3CCCCC3)cc2-c2cc(C(=O)N[C@H]3CCCc4ccccc43)ccn2)c1 [Example 193, 1-((S)-1-(2-(N-methyl-3-((4-(piperidin-1-yl)-2-(4-(((S)-1,2,3,4-tetrahydronaphthalen-1-yl)carbamoyl)pyridin-2-yl)phenyl)carbamoyl)benzamido)ethyl)pyrrolidin-2-yl)-1-oxo-5,8,11-trioxa-2-azatetradecan-14-oic acid]",>80%,>80,< 30,< 10,4.50 to 5.00
"COCCN(C)C(=O)N1CCN(CCN(C)Cc2cccc(C(=O)Nc3ccc(N4CCCCC4)cc3-c3cc(C(=O)NCc4cccc(C(F)(F)F)c4)ccn3)c2)CC1 [Example 209, N-(2-methoxyethyl)-N-methyl-4-(2-(methyl(3-(4-(piperidin-1-yl)-2-(4-(3-(trifluoromethyl)benzylcarbamoyl)pyridin-2-yl)phenylcarbamoyl)benzyl)amino)ethyl)piperazine-1-carboxamide]",60-80%,>80,< 30,< 30,5.10 to 6.00
"COCCN(C)C(=O)N1CCN(CCN(C)Cc2cccc(C(=O)Nc3ccc(N4CCCCC4)cc3-c3cc(C(=O)NCc4cccc(C(F)(F)F)c4)ccn3)n2)CC1 [Example 210, N-(2-methoxyethyl)-N-methyl-4-(2-(methyl((6-(4-(piperidin-1-yl)-2-(4-(3-(trifluoromethyl)benzylcarbamoyl)pyridin-2-yl)phenylcarbamoyl)pyridin-2-yl)methyl)amino)ethyl)piperazine-1-carboxamide]",>80%,>80,< 30,< 10,4.50 to 5.00
"CN(CCOCCOCCOCCC(=O)O)C(=O)c1cccc(C(=O)Nc2ccc(Cl)cc2-c2cc(C(=O)NCc3cccc(C(F)(F)F)c3)ccn2)c1 [Example 238, 3-{2-[2-(2-{1-[3-({4-chloro-2-[4-({[3-(trifluoromethyl)phenyl]methyl}carbamoyl)pyridin-2-yl]phenyl}carbamoyl)phenyl]-N-methylformamido}ethoxy)ethoxy]ethoxy}propanoic acid]",>80%,>80,< 10,< 10,4.50 to 5.00
